In patent US20030055244A1, “Pyridyl-containing spirocyclic compounds as inhibitors of fibrinogen-dependent platelet aggregation” (priority 1999, published 2003):
Read-outs that look alike come from different tables or passages of the source.

Tests used:
GPIIb-IIIa = biological target: T1, GPIIb-IIIa (Homo sapiens, UniProt P05106+P08514); assay: ELISA IIb-IIIa assay (fibrinogen binding to immobilized purified GPIIb-IIIa); conditions: inhibition of fibrinogen binding to purified GPIIb-IIIa
T1 construct: Purified platelet GPIIb-IIIa receptor was prepared as described by Fitzgerald; from tissue; host or cells: platelets
T1 sequence (P08514 32-887 limits assumed): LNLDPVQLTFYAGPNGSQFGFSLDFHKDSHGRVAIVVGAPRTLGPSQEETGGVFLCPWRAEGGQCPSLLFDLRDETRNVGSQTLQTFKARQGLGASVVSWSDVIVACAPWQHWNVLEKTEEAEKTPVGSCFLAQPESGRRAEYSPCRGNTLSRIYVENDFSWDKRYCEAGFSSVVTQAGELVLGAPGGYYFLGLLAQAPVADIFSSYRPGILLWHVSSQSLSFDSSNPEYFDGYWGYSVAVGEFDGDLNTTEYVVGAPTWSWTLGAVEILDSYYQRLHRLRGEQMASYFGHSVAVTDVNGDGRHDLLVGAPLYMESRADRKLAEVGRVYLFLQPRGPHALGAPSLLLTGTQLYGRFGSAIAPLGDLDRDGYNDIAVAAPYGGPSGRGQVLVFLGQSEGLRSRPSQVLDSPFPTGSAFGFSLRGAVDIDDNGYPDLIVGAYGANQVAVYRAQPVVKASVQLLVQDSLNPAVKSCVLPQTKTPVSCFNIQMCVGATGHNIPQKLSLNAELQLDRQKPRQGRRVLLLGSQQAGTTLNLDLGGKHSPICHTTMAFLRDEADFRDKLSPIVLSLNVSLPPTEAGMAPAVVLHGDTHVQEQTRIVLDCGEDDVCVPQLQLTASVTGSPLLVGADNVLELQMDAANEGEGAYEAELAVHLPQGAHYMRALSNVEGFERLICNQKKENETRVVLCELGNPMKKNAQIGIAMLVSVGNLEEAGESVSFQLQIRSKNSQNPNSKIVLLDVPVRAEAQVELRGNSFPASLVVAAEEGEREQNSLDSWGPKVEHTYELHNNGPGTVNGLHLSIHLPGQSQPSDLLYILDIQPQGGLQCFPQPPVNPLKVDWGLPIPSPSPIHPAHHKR
T1 sequence (P08514 891-1039 limits assumed): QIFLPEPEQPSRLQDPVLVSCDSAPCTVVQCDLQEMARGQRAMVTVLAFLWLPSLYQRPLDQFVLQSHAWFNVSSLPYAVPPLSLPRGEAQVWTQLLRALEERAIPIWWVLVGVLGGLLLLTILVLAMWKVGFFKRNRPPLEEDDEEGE
T1 sequence (P05106 27-788): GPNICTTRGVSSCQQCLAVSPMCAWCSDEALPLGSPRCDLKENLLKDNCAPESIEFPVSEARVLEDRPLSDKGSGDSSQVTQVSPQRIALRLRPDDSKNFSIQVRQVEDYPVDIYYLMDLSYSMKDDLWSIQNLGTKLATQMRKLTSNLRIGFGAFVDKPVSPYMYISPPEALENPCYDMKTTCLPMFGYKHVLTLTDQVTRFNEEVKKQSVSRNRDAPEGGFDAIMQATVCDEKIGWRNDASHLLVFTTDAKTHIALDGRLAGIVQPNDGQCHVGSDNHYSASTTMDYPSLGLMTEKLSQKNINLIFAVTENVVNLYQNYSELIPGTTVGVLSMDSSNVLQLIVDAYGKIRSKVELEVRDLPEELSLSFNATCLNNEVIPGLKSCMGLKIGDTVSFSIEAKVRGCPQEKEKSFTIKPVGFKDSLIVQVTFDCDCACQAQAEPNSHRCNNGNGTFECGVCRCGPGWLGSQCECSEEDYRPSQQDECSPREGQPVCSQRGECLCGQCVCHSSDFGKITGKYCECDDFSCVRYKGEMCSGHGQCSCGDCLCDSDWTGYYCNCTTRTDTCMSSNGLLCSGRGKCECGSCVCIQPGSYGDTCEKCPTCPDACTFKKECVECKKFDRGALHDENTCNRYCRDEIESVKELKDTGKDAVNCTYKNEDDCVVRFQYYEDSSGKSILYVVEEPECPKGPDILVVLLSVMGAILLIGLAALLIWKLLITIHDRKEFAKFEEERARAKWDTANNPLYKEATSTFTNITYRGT
Description: No. 1 - The ELISA IIb-IIIa Assay
PIIb-IIIa is coated onto microtiter plates. The coated support is then contacted with fibrinogen and with the test material (e.g., compounds of Formula I) and incubated for a sufficient time to permit maximal binding of fibrinogen to the immobilized GPIIb- Ila. Fibrinogen is typically provided at a concentration of about 5-50 nM and the test material can, if desired, be added at a series of dilution. Typical incubations are 2 to 4 hours at 25° C., the time and temperature being interdependent.
After incubation, the solution containing the fibrinogen and test material is removed and the level of binding of fibrinogen measured by quantitating bound fibrinogen to GPIIb-IIIa. Any suitable means of detection may be used, but it is convenient to employ labeled fibrinogen, for example using biotinylated labels. Such methods are well known in the art.
A. Description of Assays—Plate Assays
After purification, the receptors were stored in 0.1% Triton X-100 at 0.1-1.0 mg/ml.
The receptors were coated to the wells of 96-well flat-bottom ELISA plates (Linbro EIA-Plus microtiter plate, Flow Laboratories) after diluting 1:200 with a solution of 20 mM Tris-HCl, 150 mM NaCl, 1 mM CaCl2, pH 7.4, to reduce the Triton X-100 concentration to below its critical micellar concentration and adding an aliquot of 100 ul to each well. The wells were all allowed to incubate overnight at 4° C., and then aspirated to dryness. Additional sites were blocked by the addition of bovine serum albumin (BSA) at 35 mg/ml in the above buffer for two hours at 30° C. to prevent nonspecific binding. The wells were then washed once with binding buffer ([…] Tris-HCl, 100 mM NaCl 2 mM CaCl2, 1 mg/ml BSA).
The corresponding ligands (fibrinogen, von Willebrand Factor, or vitronectin) were conjugated to biotin using commercially available reagents and standard protocols. The labeled ligands were added to the receptor-coated wells at final concentration of 10 nM (100 ul/well) and incubated for 3 hours at 25° C. in the presence or absence of the test samples. After incubation, the wells are aspirated to dryness and bound ligand is quantitated.
Decreased color development is observed in wells incubated with test samples which inhibit binding of ligand to receptor.

[1] = tested on: human platelet-rich plasma; assay: Platelet aggregation assay (Aggregation-Human PRP/ADP); type: cell-based
Description: Platelet-rich plasma was prepared from healthy human volunteers for use in determining inhibition of platelet aggregation by the compounds.
Platelet-rich plasma was prepared at room temperature by centrifugation of the citrated whole blood at 100 × g for twelve minutes. The platelet rich plasma contained approximately 200-400,000 platelets/μl.
Platelet aggregation was assayed in a 4-channel platelet aggregation profiler (PAP-4, Biodata, Hatboro, Pa.) according to the manufacturers directions. Inhibition of platelet aggregation was studied by adding varying amounts of adenosine diphosphate (ADP) to stirred human platelet-rich plasma. Specifically, the human platelet-rich plasma was incubated with the compound being tested for 1 minute at 37° C. prior to the addition of a variety of aggregating agents most often ADP 5 μM to 20 μM, but also 1 μg/ml collagen, 1 μM U46619 and 0.3 μM platelet activating factor.

[2] = read-out: PRP (ADP-Citrate) IC50

SMILES: O=C(O)CCCC(=O)N1CCC2(CC1)CCN(c1ccncc1)CC2 [Example 1, 5-oxo-5-(9-(4-pyridyl)-3,9-diazaspiro[5.5]undec-3-yl)pentanoic acid]
- IC50 (GPIIb-IIIa): 0.238 µM
- IC50 ([1]; read-out: PRP IC50): 5.1 µM

SMILES: O=C(O)CCCCC(=O)N1CCC2(CC1)CCN(c1ccncc1)CC2 [Example 2, 6-oxo-6-(9-(4-pyridyl)-3,9-diazaspiro[5.5]undec-3-yl)hexanoic acid]
- IC50 (GPIIb-IIIa): 0.258 µM
- IC50 ([1]; read-out: PRP IC50): 4.5 µM

SMILES: O=C(O)CCCCCC(=O)N1CCC2(CC1)CCN(c1ccncc1)CC2 [Example 3, 7-oxo-7-(9-(4-pyridyl)-3,9-diazaspiro[5.5]undec-3-yl)heptanoic acid]
- IC50 (GPIIb-IIIa): 0.265 µM
- IC50 ([1]; read-out: PRP IC50): 4.5 µM

SMILES: O=C(O)CCCCCCC(=O)N1CCC2(CC1)CCN(c1ccncc1)CC2 [Example 4, 8-oxo-8-(9-(4-pyridyl)-3,9-diazaspiro[5.5]undec-3-yl)octanoic acid]
- IC50 (GPIIb-IIIa): 1.16 µM
- IC50 ([1]; read-out: PRP IC50): 18 µM

SMILES: O=C(N[C@@H](CCC(=O)N1CCC2(CC1)CCN(c1ccncc1)CC2)C(=O)O)OCc1ccccc1 [Example 5, 2(S)-2-{[(benzyloxy)carbonyl]amino}-5-oxo-5-[9-(4-pyridyl)-3,9-diazaspiro [5.5]undec-3-yl]pentanoic acid]
- IC50 (GPIIb-IIIa): 0.007 µM
- IC50 ([1]; read-out: PRP IC50): 4.6 µM

SMILES: CCCCS(=O)(=O)N[C@@H](CCC(=O)N1CCC2(CC1)CCN(c1ccncc1)CC2)C(=O)O [Example 6, 2(S)-2-[(butylsulfonyl)amino]-5-oxo-5-[9-(4-pyridyl)-3,9-diazaspiro [5.5]undec-3-yl]pentanoic acid]
- IC50 ([1]; read-out: PRP IC50): 0.79 µM

SMILES: Cc1ccc(S(=O)(=O)N[C@@H](CCC(=O)N2CCC3(CC2)CCN(c2ccncc2)CC3)C(=O)O)cc1 [Example 7, 2(S)-2-{[(4-methylphenyl)sulfonyl]amino}-5-oxo-5-[9-(4-pyridyl)-3,9-diazaspiro [5.5]undec-3-yl]pentanoic acid]
- IC50 ([1]; read-out: PRP IC50): 0.077 µM

SMILES: Cc1noc(C)c1S(=O)(=O)N[C@@H](CCC(=O)N1CCC2(CC1)CCN(c1ccncc1)CC2)C(=O)O [Example 8, 2(S)-2-{[(3,5-dimethyl-4-isoxazolyl)sulfonyl]amino}-5-oxo-5-[9-(4-pyridyl)-3,9-diazaspiro [5.5]undec-3-yl]pentanoic acid]
- IC50 (GPIIb-IIIa): 0.002 µM
- IC50 ([1]; read-out: PRP IC50): 0.021 µM

SMILES: CCCCOC(=O)N[C@@H](CCC(=O)N1CCC2(CC1)CCN(c1ccncc1)CC2)C(=O)O [Example 9, 2(S)-2-[(butoxycarbonyl)amino]-5-oxo-5-[9-(4-pyridyl)-3,9-diazaspiro [5.5]undec-3-yl]pentanoic acid]
- IC50 (GPIIb-IIIa): 0.002 µM
- IC50 ([1]; read-out: PRP IC50): 0.722 µM

SMILES: Cc1noc(C)c1S(=O)(=O)N[C@@H](CNC(=O)N1CCC2(CC1)CCN(c1ccncc1)CC2)C(=O)O [Example 10, (2S)-2-{[(3,5-dimethyl-4-isoxazolyl)sulfonyl]amino}-3-( {[9-(4-pyridyl)-3,9-diazaspiro [5.5]undec-3-yl]carbonyl}amino)propanoic acid]
- IC50 (GPIIb-IIIa): 0.001 µM
- IC50 ([1]; read-out: PRP IC50): 0.031 µM

SMILES: O=C(O)COC1CCN(C(=O)N2CCC3(CC2)CCN(c2ccncc2)CC3)CC1 [Example 11, 2-[(1 -{[9-(4-pyridyl)-3,9-diazaspiro[5.5]undec-3-yl]carbonyl}-4-piperidyl)oxy]acetic acid]
- IC50 (GPIIb-IIIa): 0.129 µM
- IC50 ([1]; read-out: PRP IC50): 2.65 µM

SMILES: O=C(O)CC(=O)N1CCC(C(=O)N2CCC3(CC2)CCN(c2ccncc2)CC3)CC1 [Example 12, 3-oxo-3-(4-{[9-(4-pyridyl)-3,9-diazaspiro[5.5]undec-3-yl]carbonyl}piperidino)propanoic acid]
- IC50 (GPIIb-IIIa): 0.039 µM
- IC50 ([1]; read-out: PRP IC50): 1.77 µM

SMILES: CCCCOC(=O)N[C@@H](CNC(=O)C1CCC2(CC1)CCN(c1ccncc1)CC2)C(=O)O [Example 16, (2S)-2-{[(butyloxyl)carbonyl]amino}-3-({[3-(4-pyridyl)-3-azaspiro[5.5]undec-9-yl]carbonyl}amino)propanoic acid]
- IC50 ([1]; read-out: PRP (ADP) IC50): 1.88 µM

SMILES: CC(CC(=O)O)NC(=O)C1CCC2(CC1)CCN(c1ccncc1)CC2 (centres unmarked) [Example 17, 3-({[3-(4-pyridyl)-3-azaspiro[5.5]undec-9-yl]carbonyl}amino)butanoic acid]
- IC50 ([1]; read-out: PRP (ADP) IC50): 14.8 µM

SMILES: CC(CNC(=O)C1CCC2(CC1)CCN(c1ccncc1)CC2)CC(=O)O (centres unmarked) [Example 18, 3-methyl-4-({[3-(4-pyridyl)-3-azaspiro[5.5]undec-9-yl]carbonyl}amino) butanoic acid]
- IC50 ([1]; read-out: PRP (ADP) IC50): 3 µM

SMILES: O=C(O)CC(=O)N1CCC(C(=O)N2CCC3(CCN(c4ccncc4)CC3)C2)CC1 [Example 19, 3-oxo-3-(4-{[8-(4-pyridyl)-2,8-diazaspiro[4.5]dec-2-yl]carbonyl}piperidino)propanoic acid]
- IC50 (GPIIb-IIIa): 0.028 µM
- IC50 [1, 2]: 1.6 µM

SMILES: O=C(N[C@@H](CCC(=O)N1CCC2(CCN(c3ccncc3)CC2)C1)C(=O)O)OCc1ccccc1 [Example 20, (2S)-2-{[(benzyloxy)carbonyl]amino}-5-oxo-5-[8-(4-pyridyl)-2,8-diazaspiro [4.5]dec-2-yl]pentanoic acid]
- IC50 (GPIIb-IIIa): 0.012 µM
- IC50 [1, 2]: 9.1 µM

SMILES: CCCCOC(=O)N[C@@H](CCC(=O)N1CCC2(CCN(c3ccncc3)CC2)C1)C(=O)O [Example 21, (2S)-2-[(butoxycarbonyl)amino]-5-oxo-5-[8-(4-pyridyl)-2,8-diazaspiro [4.5]dec-2-yl]pentanoic acid]
- IC50 (GPIIb-IIIa): 0.162 µM
- IC50 [1, 2]: 5.7 µM

SMILES: O=C(O)CCCCC(=O)N1CCC2(CCN(c3ccncc3)CC2)C1 [Example 22, 6-oxo-6-(8-(4-pyridyl)-2,8-diazaspiro[4.5]dec-2-yl)hexanoic acid]
- IC50 [1, 2]: > 80 µM

SMILES: O=C(O)CCCCCCC(=O)N1CCC2(CCN(c3ccncc3)CC2)C1 [Example 23, 8-oxo-8-(8-(4-pyridyl)-2,8-diazaspiro[4.5]dec-2-yl)octanoic acid]
- IC50 (GPIIb-IIIa): 0.196 µM
- IC50 [1, 2]: 18.7 µM

SMILES: O=C(O)CCCCCC(=O)N1CCC2(CCN(c3ccncc3)CC2)C1 [Example 24, 7-oxo-7-(8-(4-pyridyl)-2,8-diazaspiro[4.5]dec-2-yl)heptanoic acid]
- IC50 (GPIIb-IIIa): 0.016 µM
- IC50 [1, 2]: 1.3 µM

SMILES: O=C(O)CCN1CCN(C(=O)N2CCC3(CCN(c4ccncc4)CC3)C2)CC1=O [Example 25, 3-(2-oxo-4-((8-(4-pyridyl)-2,8-diazaspiro[4.5]dec-2-yl)carbonyl)piperazino)propanoic acid]
- IC50 [1, 2]: 8.3 µM

SMILES: O=C(O)CCN1CCN(C(=O)N2CCC3(CC2)CCN(c2ccncc2)C3)CC1=O [Example 30, 3-(2-oxo-4-((2-(4-pyridyl)-2,8-diazaspiro[4.5]dec-8-yl)carbonyl)piperazino)propanoic acid]
- IC50 [1, 2]: 1.29 µM

SMILES: O=C(O)CN1CCC(N2CCC3(CCN(c4ccncc4)C3)CC2)CC1 [Example 32, 2-{4-(2-(4-pyridyl)-2,8-diazaspiro[4.5]dec-8-yl]piperidino}acetic acid]
- IC50 [1, 2]: 9.5 µM

SMILES: O=C(O)CN1CCC(CC(=O)N2CCC3(CC2)CCN(c2ccncc2)C3)CC1 [Example 33, 2-(4-{2-oxo-2-[2-(4-pyridyl)-2,8-diazaspiro[4.5]dec-8-yl]ethyl}piperidino)acetic acid]
- IC50 [1, 2]: 80 µM

SMILES: CCCCOC(=O)N[C@@H](CCC(=O)N1CCC2(CC1)CCN(c1ccncc1)C2)C(=O)O [Example 35, (2S)-2-[(butoxycarbonyl)amino]-5-oxo-5-[2-(4-pyridyl)-2,8-diazaspiro [4.5]dec-8-yl]pentanoic acid]
- IC50 [1, 2]: 4 µM

SMILES: CN(CC(=O)O)C1CCN(C(=O)N2CCC3(CC2)CCN(c2ccncc2)C3)CC1 [Example 46, 2-[methyl(1-{[2-(4-pyridyl)-2,8-diazaspiro[4.5]dec-8-yl]carbonyl}-4-piperidyl)amino]acetic acid]
- IC50 ([1]; read-out: PRP IC50): 10 µM

SMILES: O=C(O)COC1CCN(CC(=O)N2CCC3(CC2)CCN(c2ccncc2)C3)CC1 [Example 50, 2-[(1-{2-oxo-2-[2-(4-pyridyl)-2,8-diazaspiro[4.5]dec-8-yl]ethyl}-4-piperidyl)oxyl]acetic acid]
- IC50 ([1]; read-out: PRP IC50): 80 µM

SMILES: O=C(O)COc1ccc(C(=O)N2CCC3(CC2)CCN(c2ccncc2)C3)cc1 [Example 52, 2-(4-{[2-(4-pyridyl)-2,8-diazaspiro[4.5]dec-8-yl]carbonyl}phenoxy) acetic acid]
- IC50 [1, 2]: 11.3 µM
